# Reference: patent publication US10081624B2, “Heterocyclic compound” (Takeda Pharmaceutical Company Limited, priority 2014, dated 2018)
# Legend:
# [1] = target: T1, HDAC6 enzyme (Homo sapiens, UniProt Q9UBN7); assay: HDAC6 enzyme inhibitory assay (HDAC-Glo I/II Assay kit); type: biochemical; conditions: 1 μM test compound; for inhibition at 1 µM: read-out: HDAC6 inhibitory rate (%) (1 μM)
# T1 construct: prepared by transducing full length HDAC1 and HDAC6 genes into Sf-9 insect cells; GST; purchased SignalChem; host or cells: Sf-9 insect cells
# T1 sequence (Q9UBN7 1-1215): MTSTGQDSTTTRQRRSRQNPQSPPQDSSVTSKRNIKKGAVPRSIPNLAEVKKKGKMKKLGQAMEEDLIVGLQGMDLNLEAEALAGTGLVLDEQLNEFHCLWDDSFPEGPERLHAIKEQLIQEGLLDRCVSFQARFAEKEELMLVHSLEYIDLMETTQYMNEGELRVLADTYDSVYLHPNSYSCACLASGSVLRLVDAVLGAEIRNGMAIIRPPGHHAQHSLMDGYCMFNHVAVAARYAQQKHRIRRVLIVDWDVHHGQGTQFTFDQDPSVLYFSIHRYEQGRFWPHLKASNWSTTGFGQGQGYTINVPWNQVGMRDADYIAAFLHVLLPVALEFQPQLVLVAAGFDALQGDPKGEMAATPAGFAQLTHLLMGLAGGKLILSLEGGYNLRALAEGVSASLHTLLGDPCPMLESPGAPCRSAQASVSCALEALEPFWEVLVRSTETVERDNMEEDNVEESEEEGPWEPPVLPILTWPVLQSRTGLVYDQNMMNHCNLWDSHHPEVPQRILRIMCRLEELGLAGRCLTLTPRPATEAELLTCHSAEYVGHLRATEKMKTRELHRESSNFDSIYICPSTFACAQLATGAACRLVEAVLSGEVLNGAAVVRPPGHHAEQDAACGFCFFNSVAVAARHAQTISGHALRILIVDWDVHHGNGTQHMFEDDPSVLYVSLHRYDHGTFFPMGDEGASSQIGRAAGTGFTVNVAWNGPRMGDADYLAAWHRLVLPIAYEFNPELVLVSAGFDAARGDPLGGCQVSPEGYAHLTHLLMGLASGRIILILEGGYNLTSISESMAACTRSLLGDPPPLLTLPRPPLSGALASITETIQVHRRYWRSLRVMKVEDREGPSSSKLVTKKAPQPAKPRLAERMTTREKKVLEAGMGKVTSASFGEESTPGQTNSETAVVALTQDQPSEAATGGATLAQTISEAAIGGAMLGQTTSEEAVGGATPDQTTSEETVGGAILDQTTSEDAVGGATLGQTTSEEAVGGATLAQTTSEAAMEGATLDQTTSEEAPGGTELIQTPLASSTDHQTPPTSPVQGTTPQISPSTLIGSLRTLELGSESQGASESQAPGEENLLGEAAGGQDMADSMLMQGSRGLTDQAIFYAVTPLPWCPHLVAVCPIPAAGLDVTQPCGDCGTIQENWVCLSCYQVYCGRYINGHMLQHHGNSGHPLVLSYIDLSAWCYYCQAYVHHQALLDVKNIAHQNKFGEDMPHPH
# How it was run: (§1)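 Luminescent HDAC-Glo I/II read-out after 20 min room-temperature reaction with substrate-developer, following a 60 min room-temperature enzyme–compound preincubation. Enzymes: full-length HDAC1 or HDAC6 from Sf-9 cells, GST-purified; buffer pH 7.5 Tris with NaCl, glutathione, 0.01% Tween-20. No-enzyme wells defined 100% inhibition.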
# [2] = target: T2, HDAC1 enzyme (Homo sapiens, UniProt Q13547); assay: HDAC1 enzyme inhibitory assay (HDAC-Glo I/II Assay kit); type: biochemical; conditions: 1 μM test compound; for inhibition at 1 µM: read-out: HDAC1 inhibitory rate (%) (1 μM)
# T2 construct: prepared by transducing full length HDAC1 and HDAC6 genes into Sf-9 insect cells; GST; purchased SignalChem; host or cells: Sf-9 insect cells
# How it was run: as §1
# T2 sequence (Q13547 whole entry): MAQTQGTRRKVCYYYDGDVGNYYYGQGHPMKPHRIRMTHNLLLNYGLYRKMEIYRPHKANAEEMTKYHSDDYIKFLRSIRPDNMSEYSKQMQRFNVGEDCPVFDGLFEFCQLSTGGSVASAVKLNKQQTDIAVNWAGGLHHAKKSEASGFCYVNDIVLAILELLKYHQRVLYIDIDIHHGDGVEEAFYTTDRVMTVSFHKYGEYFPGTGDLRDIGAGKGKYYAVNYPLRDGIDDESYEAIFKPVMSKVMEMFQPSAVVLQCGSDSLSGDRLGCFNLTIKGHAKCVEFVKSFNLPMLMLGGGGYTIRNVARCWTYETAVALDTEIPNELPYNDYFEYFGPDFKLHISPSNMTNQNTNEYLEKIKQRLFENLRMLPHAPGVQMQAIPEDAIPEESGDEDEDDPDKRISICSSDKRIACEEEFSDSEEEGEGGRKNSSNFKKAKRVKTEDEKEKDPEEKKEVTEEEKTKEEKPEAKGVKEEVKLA
Compound,inhibition at 1 µM [1] [%],inhibition at 1 µM [2] [%],HDAC1 inhibitory rate (%) (1 μM) ([2]; 1 µM),HDAC6 inhibitory rate (%) (1 μM) ([1]; 1 µM),HDAC1 inhibitory rate (%) (1 μM) [2]
"Cc1nc2ccccn2c1C(=O)N1CCOCC1CNC(=O)c1ccc(-c2noc(C(F)(F)F)n2)cc1 (stereo in doubt) [Example 92, N-(((3S)-4-((2-methylimidazo[1,2-a]pyridin-3-yl)carbonyl)morpholin-3-yl)methyl)-4-(5-(trifluoromethyl)-1,2,4-oxadiazol-3-yl)benzamide]",97,36,,,
"Cn1nc2c(c1C(=O)N1CCOCC1CNC(=O)c1ccc(-c3noc(C(F)(F)F)n3)cc1)CCCC2 (stereo in doubt) [Example 93, N-(((3S)-4-((2-methyl-4,5,6,7-tetrahydro-2H-indazol-3-yl)carbonyl)morpholin-3-yl)methyl)-4-(5-(trifluoromethyl)-1,2,4-oxadiazol-3-yl)benzamide]",95,21,,,
"CN(CC1COCCN1C(=O)c1ccccc1)C(=O)c1ccc(-c2noc(C(F)(F)F)n2)cc1 (stereo not drawn) [Example 159, N-((4-benzoylmorpholin-3-yl)methyl)-N-methyl-4-(5-(trifluoromethyl)-1,2,4-oxadiazol-3-yl)benzamide]",42,11,,,
"O=C(NCC1COCCN1C(=O)c1cccc(F)c1)c1ccc(-c2noc(C(F)(F)F)n2)cc1 (stereo in doubt) [Example 113, N-(((3R)-4-(3-fluorobenzoyl)morpholin-3-yl)methyl)-4-(5-(trifluoromethyl)-1,2,4-oxadiazol-3-yl)benzamide]",97,,17,,
"O=C(NC[C@@H]1COCCN1C(=O)C1(c2ccccc2)CC1)c1ccc(-c2noc(C(F)(F)F)n2)cc1 [Example 128, N-(((3R)-4-((1-phenylcyclopropyl)carbonyl)morpholin-3-yl)methyl)-4-(5-(trifluoromethyl)-1,2,4-oxadiazol-3-yl)benzamide]",92,6,,,
"O=C(NCC1COCCN1C(=O)C1CCc2ccccc2O1)c1ccc(-c2noc(C(F)(F)F)n2)cc1 (stereo not drawn) [Example 35, N-((4-(3,4-dihydro-2H-chromen-2-ylcarbonyl)morpholin-3-yl)methyl)-4-(5-(trifluoromethyl)-1,2,4-oxadiazol-3-yl)benzamide]",92,30,,,
"Cn1nc2ccccc2c1C(=O)N1CCOCC1CNC(=O)c1ccc(-c2noc(C(F)(F)F)n2)cc1 (stereo not drawn) [Example 33, N-((4-((2-methyl-2H-indazol-3-yl)carbonyl)morpholin-3-yl)methyl)-4-(5-(trifluoromethyl)-1,2,4-oxadiazol-3-yl)benzamide]",99,47,,,
"O=C(NCC1COCCN1C(=O)c1ccc(F)cc1)c1ccc(-c2noc(C(F)(F)F)n2)cc1 (stereo not drawn) [Example 5, N-((4-(4-fluorobenzoyl)morpholin-3-yl)methyl)-4-(5-(trifluoromethyl)-1,2,4-oxadiazol-3-yl)benzamide]",99,21,,,
"O=C(NCC1COCCN1C(=O)C1CCOCC1)c1ccc(-c2noc(C(F)(F)F)n2)cc1 (stereo not drawn) [Example 26, N-((4-(tetrahydro-2H-pyran-4-ylcarbonyl)morpholin-3-yl)methyl)-4-(5-(trifluoromethyl)-1,2,4-oxadiazol-3-yl)benzamide]",95,10,,,
"O=C(NC[C@@H]1COCCN1C(=O)C1CCCCC1)c1ccc(-c2noc(C(F)(F)F)n2)cc1 [Example 152, N-(((3R)-4-(cyclohexylcarbonyl)morpholin-3-yl)methyl)-4-(5-(trifluoromethyl)-1,2,4-oxadiazol-3-yl)benzamide]",99,20,,,
"O=C(NC[C@H]1COCCN1C(=O)c1cc(F)c(F)c(F)c1)c1ccc(-c2noc(C(F)(F)F)n2)cc1 [Example 47, N-(((3S)-4-(3,4,5-trifluorobenzoyl)morpholin-3-yl)methyl)-4-(5-(trifluoromethyl)-1,2,4-oxadiazol-3-yl)benzamide]",,,,102,11
"O=C(NCC1COCCN1C(=O)C1CC1)c1ccc(-c2noc(C(F)(F)F)n2)cc1 (stereo not drawn) [Example 24, N-((4-(cyclopropylcarbonyl)morpholin-3-yl)methyl)-4-(5-(trifluoromethyl)-1,2,4-oxadiazol-3-yl)benzamide]",93,8,,,
"Cn1nc2ccccc2c1C(=O)N1CCOC[C@@H]1CC(=O)Nc1ccc(-c2noc(C(F)(F)F)n2)cc1 [Example 90, 2-((3S)-4-((2-methyl-2H-indazol-3-yl)carbonyl)morpholin-3-yl)-N-(4-(5-(trifluoromethyl)-1,2,4-oxadiazol-3-yl)phenyl)acetamide]",97,29,,,
"O=C(NC[C@@H]1COCCN1C(=O)c1cc(F)cc(F)c1)c1ccc(-c2noc(C(F)(F)F)n2)cc1 [Example 155, N-(((3R)-4-(3,5-difluorobenzoyl)morpholin-3-yl)methyl)-4-(5-(trifluoromethyl)-1,2,4-oxadiazol-3-yl)benzamide]",99,15,,,

# Continued, values first:
inhibition at 1 µM [1] [%],inhibition at 1 µM [2] [%],HDAC1 inhibitory rate (%) (1 μM) ([2]; 1 µM),HDAC6 inhibitory rate (%) (1 μM) ([1]; 1 µM),HDAC1 inhibitory rate (%) (1 μM) [2],Compound
97,18,,,,"O=C(NCC1Cc2ccccc2CN1C(=O)c1ccccc1)c1ccc(-c2noc(C(F)(F)F)n2)cc1 (stereo not drawn) [Example 175, N-((2-benzoyl-1,2,3,4-tetrahydroisoquinolin-3-yl)methyl)-4-(5-(trifluoromethyl)-1,2,4-oxadiazol-3-yl)benzamide]"
91,2,,,,"O=C(NC[C@H]1COCCN1C(=O)N1CCC[C@H]1C(F)(F)F)c1ccc(-c2noc(C(F)(F)F)n2)cc1 [Example 287, 4-(5-(trifluoromethyl)-1,2,4-oxadiazol-3-yl)-N-(((3S)-4-(((2S)-2-(trifluoromethyl)pyrrolidin-1-yl)carbonyl)morpholin-3-yl)methyl)benzamide]"
95,2,,,,"O=C(NC[C@H]1COCCN1C(=O)N1CCC[C@@H]1C(F)(F)F)c1ccc(-c2noc(C(F)(F)F)n2)cc1 [Example 286, 4-(5-(trifluoromethyl)-1,2,4-oxadiazol-3-yl)-N-(((3S)-4-(((2R)-2-(trifluoromethyl)pyrrolidin-1-yl)carbonyl)morpholin-3-yl)methyl)benzamide]"
98,18,,,,"CC(C)(C(=O)N1CCOCC1CNC(=O)c1ccc(-c2noc(C(F)(F)F)n2)s1)c1ccccc1 (stereo not drawn) [Example 247, N-((4-(2-methyl-2-phenylpropanoyl)morpholin-3-yl)methyl)-5-(5-(trifluoromethyl)-1,2,4-oxadiazol-3-yl)thiophene-2-carboxamide]"
94,3,,,,"O=C(NC[C@H]1COCCN1C(=O)N1CC[C@H](O)C1)c1ccc(-c2noc(C(F)(F)F)n2)cc1 [Example 274, N-(((3S)-4-(((3S)-3-hydroxypyrrolidin-1-yl)carbonyl)morpholin-3-yl)methyl)-4-(5-(trifluoromethyl)-1,2,4-oxadiazol-3-yl)benzamide]"
90,14,,,,"O=C(NC[C@H]1COCCN1C(=O)N1CCC(c2ccccc2)C1)c1ccc(-c2noc(C(F)(F)F)n2)cc1 (stereo partly drawn) [Example 293, N-(((3S)-4-((3-phenylpyrrolidin-1-yl)carbonyl)morpholin-3-yl)methyl)-4-(5-(trifluoromethyl)-1,2,4-oxadiazol-3-yl)benzamide]"
96,15,,,,"COC(=O)c1cccc(C(=O)N2CCOC[C@@H]2CNC(=O)c2ccc(-c3noc(C(F)(F)F)n3)cc2)c1 [Example 268, methyl 3-(((3S)-3-(((4-(5-(trifluoromethyl)-1,2,4-oxadiazol-3-yl)benzoyl)amino)methyl)morpholin-4-yl)carbonyl)benzoate]"
